# Data reported in patent publication US9056874B2, “Complement pathway modulators and uses thereof” (NOVARTIS AG, priority 2012, dated 2015).
# Target: factor B (Homo sapiens, UniProt P00751)
# Test: factor B inhibition assay of Biological Example 1
# Format: biochemical
# Set-up: CVF-Bb complex prepared from purified cobra venom factor (1 μM), recombinant human complement factor B; made in house; host or cells: drosophila cells (factor B); E. coli (factor D used to form the complex)
# Conditions: IC50 (nM), assay of Biological Example 1 (Table 1)
# Chain of factor B (P00751 260-764 limits assumed): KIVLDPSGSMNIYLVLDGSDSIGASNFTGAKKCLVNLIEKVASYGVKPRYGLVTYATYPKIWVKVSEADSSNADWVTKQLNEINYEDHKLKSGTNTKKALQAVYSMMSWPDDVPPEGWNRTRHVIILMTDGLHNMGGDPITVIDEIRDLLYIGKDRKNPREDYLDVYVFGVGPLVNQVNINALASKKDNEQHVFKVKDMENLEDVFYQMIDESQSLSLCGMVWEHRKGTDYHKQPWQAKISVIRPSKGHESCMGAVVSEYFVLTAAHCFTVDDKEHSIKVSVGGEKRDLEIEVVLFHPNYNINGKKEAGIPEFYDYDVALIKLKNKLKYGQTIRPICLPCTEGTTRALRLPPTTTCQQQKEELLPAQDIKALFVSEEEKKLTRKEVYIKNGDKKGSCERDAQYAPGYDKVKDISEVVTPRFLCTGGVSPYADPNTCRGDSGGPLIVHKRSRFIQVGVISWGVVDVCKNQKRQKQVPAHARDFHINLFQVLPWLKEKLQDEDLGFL
# Chain of factor B (Q91132 23-649 partner limits assumed): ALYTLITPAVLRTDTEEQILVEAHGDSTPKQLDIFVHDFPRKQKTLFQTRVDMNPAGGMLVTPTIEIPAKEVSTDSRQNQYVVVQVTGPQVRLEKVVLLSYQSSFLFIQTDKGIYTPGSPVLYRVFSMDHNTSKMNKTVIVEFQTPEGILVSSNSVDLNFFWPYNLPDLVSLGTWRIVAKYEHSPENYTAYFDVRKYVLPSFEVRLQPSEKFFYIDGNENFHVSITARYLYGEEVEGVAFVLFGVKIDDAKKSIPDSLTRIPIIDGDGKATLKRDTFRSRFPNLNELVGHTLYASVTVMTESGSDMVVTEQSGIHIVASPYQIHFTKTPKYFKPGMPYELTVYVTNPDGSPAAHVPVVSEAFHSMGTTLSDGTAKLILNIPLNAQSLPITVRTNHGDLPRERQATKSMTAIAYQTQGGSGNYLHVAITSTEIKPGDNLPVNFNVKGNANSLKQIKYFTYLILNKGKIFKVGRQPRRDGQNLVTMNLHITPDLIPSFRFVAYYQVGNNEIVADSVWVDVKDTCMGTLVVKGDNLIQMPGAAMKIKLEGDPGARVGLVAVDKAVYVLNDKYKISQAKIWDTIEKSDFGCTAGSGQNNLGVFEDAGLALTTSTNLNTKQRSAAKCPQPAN
# Chain of factor B (Q91132 733-984 partner limits assumed): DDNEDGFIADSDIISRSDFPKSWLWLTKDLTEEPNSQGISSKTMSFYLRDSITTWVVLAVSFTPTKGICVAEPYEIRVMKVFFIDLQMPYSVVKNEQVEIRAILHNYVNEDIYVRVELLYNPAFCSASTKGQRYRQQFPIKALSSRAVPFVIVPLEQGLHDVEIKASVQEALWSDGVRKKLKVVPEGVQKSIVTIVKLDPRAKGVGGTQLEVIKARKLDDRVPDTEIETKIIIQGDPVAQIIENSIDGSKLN
# Chain of factor B (Q91132 1264-1642 partner limits assumed): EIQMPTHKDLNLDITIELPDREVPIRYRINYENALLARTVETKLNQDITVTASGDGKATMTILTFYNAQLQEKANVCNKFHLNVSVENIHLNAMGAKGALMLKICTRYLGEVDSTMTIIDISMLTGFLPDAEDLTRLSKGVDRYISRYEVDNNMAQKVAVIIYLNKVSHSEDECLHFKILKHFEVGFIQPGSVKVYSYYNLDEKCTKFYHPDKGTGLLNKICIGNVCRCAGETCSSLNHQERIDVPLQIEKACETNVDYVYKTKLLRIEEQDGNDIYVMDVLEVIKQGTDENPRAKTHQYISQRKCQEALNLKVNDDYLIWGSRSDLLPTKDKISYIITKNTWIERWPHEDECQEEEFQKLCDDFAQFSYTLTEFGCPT
row,Compound,IC50 [nM]
1,"Cc1cc(C)c2[nH]ccc2c1C(N)c1nc2ccc(C#N)cc2[nH]1 (single isomer, unassigned; (+)) [95-B b) (+), (+)-2-(amino(5,7-dimethyl-1H-indol-4-yl)methyl)benzo[d]imidazole-5-carbonitrile]",2140
2,"Cc1cc(CC(C)C)c(C(O)c2nc3cc(C#N)ccc3[nH]2)c2cc[nH]c12 (single isomer, unassigned; (+)) [67-C b) (+), (+)-2-(hydroxy(5-(isobutyl)-7-methyl-1H-indol-4-yl)methyl)-1H-benzo[d]imidazole-5-carbonitrile]",8770
3,"Cc1cc(OC(F)F)c(C(C)(O)c2nc3cc(C#N)ccc3[nH]2)c2c(Cl)c[nH]c12 (single isomer, unassigned) [Example 7, (+) or (−)-2-(1-(3-chloro-5-(difluoromethoxy)-7-methyl-1H-indol-4-yl)-1-hydroxyethyl)-1H-benzo[d]imidazole-5-carbonitrile]",4240
4,"Cc1cc(Cl)c(C(O)c2nc3cc(C#N)ccc3[nH]2)c2cc[nH]c12 (single isomer, unassigned; (+)) [67-E b) (+), (+)-2-((5-chloro-7-methyl-1H-indol-4-yl)(hydroxy)methyl)-1H-benzo[d]imidazole-5-carbonitrile]",2080
5,"Cc1cc(C(C)C)c(C(O)(c2nc3cc(C#N)ccc3[nH]2)C(F)(F)F)c2cc[nH]c12 (single isomer, unassigned; (-)) [80-F b) (−), (−)-2-(2,2,2-trifluoro-1-hydroxy-1-(5-isopropyl-7-methyl-1H-indol-4-yl)ethyl)-1H-benzo[d]imidazole-5-carbonitrile]",20
6,"COC(C)(c1nc2cc(C#N)ccc2[nH]1)c1c(CC(C)C)cc(C)c2[nH]ccc12 (single isomer, unassigned; (-)) [84-E b) (−), (−)-2-(1-(5-isobutyl-7-methyl-1H-indol-4-yl)-1-methoxyethyl)-1H-benzo[d]imidazole-5-carbonitrile]",260
7,"CNC(c1nc2cc(C#N)ccc2[nH]1)(c1c(S(C)(=O)=O)cc(C)c2[nH]ccc12)C(F)(F)F (single isomer, unassigned; (-)) [16-B b) (−), (−)-2-(2,2,2-trifluoro-1-(7-methyl-5-(methylsulfonyl)-1H-indol-4-yl)-1-(methylamino)ethyl)-1H-benzo[d]imidazole-5-carbonitrile]",180
8,"Cc1cc(S(C)(=O)=O)c(C(C)(O)c2nc3cc(C#N)ccc3[nH]2)c2cc[nH]c12 (single isomer, unassigned) [11-C b) (tr = 4.2 min), (−) or (+)-2-(1-hydroxy-1-(7-methyl-5-(methylsulfonyl)-1H-indol-4-yl)ethyl)-1H-benzo[d]imidazole-5-carbonitrile]",1020
9,"Cc1cc(OC(F)F)c(C(C)(N)c2nc3cc(C#N)ccc3[nH]2)c2cc[nH]c12 (single isomer, unassigned; (+)) [5-E b) (+), (+)-2-(1-amino-1-(5-(difluoromethoxy)-7-methyl-1H-indol-4-yl)ethyl)-1H-benzo[d]imidazole-5-carbonitrile]",420
10,"Cc1cc(CN)c(Cc2nc3cc(C#N)ccc3[nH]2)c2cc[nH]c12 [Example 60-B, 2-((5-(Aminomethyl)-7-methyl-1H-indol-4-yl)methyl)-1H-benzo[d]imidazole-5-carbonitrile]",5780
11,"COc1cc(C)c2[nH]ccc2c1C(O)c1nc2ccc(C#N)cc2s1 (racemic) [Example 132-B, (±)-2-(hydroxy(5-methoxy-7-methyl-1H-indol-4-yl)methyl)benzo[d]thiazole-6-carbonitrile]",70
12,"Cc1cc(C)c2[nH]ccc2c1C(O)c1nc2cc(C#N)ccc2[nH]1 (single isomer, unassigned; (+)) [64-C b) (+), (+)-2-((5,7-dimethyl-1H-indol-4-yl)(hydroxy)methyl)benzo[d]imidazole-5-carbonitrile]",340
